In US12448382B2, “Heterocyclic compounds for mediating tyrosine kinase 2 activity” (GUANGZHOU INNOCARE PHARMA TECH CO., LTD., priority 2019, dated 2025) one finds IC50 data, which are given here for 16 compounds.

Experiment [1] deals with T1, human recombinant TYK2 protein (Homo sapiens, UniProt P29597).
T1 construct: purchased Carna Biosciences 08-147
T1 sequence (P29597 871-1187 limits assumed): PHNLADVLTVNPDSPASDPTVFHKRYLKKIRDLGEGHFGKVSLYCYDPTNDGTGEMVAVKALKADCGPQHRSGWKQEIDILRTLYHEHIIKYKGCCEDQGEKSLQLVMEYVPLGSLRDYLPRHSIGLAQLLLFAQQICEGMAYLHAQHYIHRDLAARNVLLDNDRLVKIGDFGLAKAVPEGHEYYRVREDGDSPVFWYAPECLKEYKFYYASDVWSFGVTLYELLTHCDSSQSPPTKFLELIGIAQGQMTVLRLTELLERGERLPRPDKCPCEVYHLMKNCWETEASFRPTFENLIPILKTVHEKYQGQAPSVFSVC
The experiment can be described thus: TYK2 Inhibition Assay (HTRF kinase assay). The class given is biochemical. Particulars: human recombinant TYK2, 11.25 μM ATP substrate solution. A digest of the protocol: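 Recombinant human TYK2 was pre-incubated 15 min at room temperature with compound, then reacted for 40 min with biotinylated tyrosine-kinase substrate and ATP (substrate solution 11.25 μM ATP, 0.5 μM substrate; 5 mM MgCl2, 0.01% Brij35). Phosphorylation was read by HTRF 665/620 ratio, normalised to no-enzyme and no-compound controls, and IC50 was fitted from 8 4-fold dilutions.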
For orientation: TR-FRET usually uses a lanthanide donor and a delayed reading to cut background.

The test system of experiment [2] is IL-12-induced IFN-γ secretion in NK92 cells. The experiment can be described thus: Inhibition of IL-12-induced IFN-γ Secretion in NK92 Cells (ELISA). The class given is cell-based, human. The following applies: Homo sapiens, 24 hours incubation, 8 concentration points, read-out: IC50 (NK92_IL12/IFNγ). The protocol: Inhibition of IL-12-induced IFN-γ Secretion in NK92 Cells
The effect of the compounds of the present invention on IFN-γ secretion induced by IL-12 in NK92 cells was evaluated by an enzyme-linked immunosorbent assay (ELISA).
IL-12 receptor is mainly expressed in activated T-cells, NK cells (NK92 is a NK cell line), DC cells, and B-cells. When binding to IL-12, it activates JAK2/TYK2 signal transduction pathway within NK cells and T lymphocytes, thereby inducing secretion of IFN-γ.
The experimental method is generally described below:
The test compound was dissolved in DMSO to 2.5 mM, followed by a serial 4-fold dilution with DMSO to a minimum concentration of […]. Each concentration was further diluted 50-fold with an FBS-free MEMα medium (Gibco, 12561-056).
NK92 cells (Nanjing Cobioer, CBP60980) were cultured in a complete MEMα medium containing 12.5% FBS (Ausbian, VS500T), 12.5% horse serum (Gibco, 16050-122), 0.02 mM folic acid (Sigma, F8758), 0.2 mM inositol (Sigma, 17850), 0.55 mM β-mercaptoethanol (Gibco, 21985-023), 200 U/mL IL-2 (R&D Systems, 202-1L), and 100 U/mL penicillin (Thermofisher, 15140122). When covering 80-90% of the culture container surface, the cells were dispersed and plated on a 96-well plate (Thermofisher, 167425) with 100,000 cells per well (80 μL of the complete MEMα medium without IL-2). The 96-well plate was then incubated overnight in a 37° C./5% CO2 incubator.
After overnight incubation, 10 μL of the test compound and 10 μL of 50 ng/mL IL-12 (R & D Systems, 219-1L) were added to each well and mix gently, and the 96-well plate was incubated in the 37° C./5% CO2 incubator for additional 24 hours. The plate as centrifuged at 800 rpm for 10 minutes at room temperature and 50 μL of the supernatant from each well was transferred to another 96-well plate (Sigma, CLS3695) coated with anti-IFN-γ antibody. The amount of IFN-γ secretion was detected following the instruction from the Human IFN-γ DuoSet ELISA kit (R & D Systems, DY285B). In the experiment, the group with IL-12 and the test compound being replaced with the MEMα medium was the non-stimulated control group (100% inhibition), and the group with IL-12 and 0.2% DMSO was the stimulated group (0% inhibition). The percentage of inhibition on IL-12 induced IFN-γ secretion in NK-92 cells by the test compound was calculated using the following formula: Percentage of inhibition=100−100*(signalcompound−signalnon-stimulated control)/(signalstimulated control−signalnon-stimulated control)
The IC50 value of the test compound was calculated front 8 concentration points using the XLfit software (ID Business Solutions Ltd., UK) by the following formula: Y=Bottom+(Top−Bottom)/(1+10^((log IC50−X)×slope factor))
Where Y was the percentage of inhibition, X was the logarithm of the concentration of the test compound, Bottom was the bottom plateau value of the S-shaped curve, Top was the top plateau value of the S-shaped curve, and slope factor was the slope coefficient of the curve.
For orientation: ELISA stands for enzyme-linked immunosorbent assay.

The target of experiment [3] is T2, human recombinant JAK2 protein (Homo sapiens, UniProt O60674).
T2 construct: purchased Carna Biosciences 08-045
T2 sequence (O60674 826-1132 limits assumed): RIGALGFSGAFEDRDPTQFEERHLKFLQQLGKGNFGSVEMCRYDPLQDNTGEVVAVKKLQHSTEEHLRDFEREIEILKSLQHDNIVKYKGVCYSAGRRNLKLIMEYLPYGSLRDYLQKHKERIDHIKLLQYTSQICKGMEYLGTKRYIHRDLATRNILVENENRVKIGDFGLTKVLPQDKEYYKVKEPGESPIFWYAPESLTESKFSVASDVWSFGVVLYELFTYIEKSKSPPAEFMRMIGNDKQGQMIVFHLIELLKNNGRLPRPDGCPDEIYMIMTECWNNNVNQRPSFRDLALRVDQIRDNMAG
The experiment can be described thus: JAK2 Inhibition Assay (HTRF kinase assay). The class given is biochemical. Particulars: human recombinant JAK2, 2.5 μM ATP substrate solution. A digest of the protocol: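 Recombinant human JAK2 was preincubated 15 min at room temperature with compound in buffer containing 5 mM MgCl2, 1 mM DTT and 0.01% Brij35. Substrate solution (2.5 μM ATP, 0.25 μM biotinylated TK substrate) was then added for 30 min. Phosphorylation was detected by HTRF (665/620 nm ratio; no-enzyme = 100% inhibition), and IC50 was fitted from an 8-point, 4-fold series.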

SMILES strings stand for the structures.

For the compound `CCNC(=O)c1ccc(Nc2ncc(F)c(N3C[C@]4(C)CN(C(=O)C5CC5(F)F)C[C@]4(C)C3)n2)cc1` (stereo partly drawn) [Compound 10, 4-((4-((3aR,6aS)-5-(2,2-difluorocyclopropane-1-carbonyl)-3a,6a-dimethylhexahydropyrrolo[3,4-c]pyrrol-2(IH)-yl)-5-fluoropyrimidin-2-yl)amino)-N-ethylbenzamide], the IC50 in experiment [1] turned out to be 2.4 nM; in experiment [2], 3800 nM; in experiment [3], 15 nM.
The corresponding values for `Cn1cc(Nc2ncc(F)c(N3C[C@]4(C)CN(C(=O)C5CC5)C[C@]4(C)C3)n2)cn1` [Compound 11] are 21 nM, 6770 nM and 137 nM.
`Cc1nnc(N2C[C@@]3(C)CN(c4nc(Nc5cnn(C)c5)ncc4Cl)C[C@@]3(C)C2)o1` [Compound 83, 5-chloro-4-((3aR,6aS)-3a,6a-dimethyl-5-(5-methyl-1,3,4-oxadiazol-2-yl)hexahydropyrrolo[3,4-c]pyrrol-2(1H)-yl)-N-(1-methyl-1H-pyrazol-4-yl)pyrimidin-2-amine]: the results for the IC50 in experiment [1], in experiment [2] and in experiment [3] were 7.4 nM, 4550 nM and 13 nM, respectively.
In the case of `Cc1cnc(Nc2cnn(C)c2)nc1N1C[C@@]2(C)CN(S(C)(=O)=O)C[C@@]2(C)C1` [Compound 55, 4-((3aR,6aS)-3a,6a-dimethyl-5-(methylsulfonyl)hexahydropyrrolo[3,4-c]pyrrol-2(1H)-yl)-5-methyl-N-(1-methyl-1H-pyrazol-4-yl)pyrimidin-2-amine], the IC50 in experiment [1] turned out to be 1.7 nM; in experiment [2] it was 413 nM; in experiment [3], 3.7 nM.
As for `Cn1cc(Nc2ncc(Cl)c(N3C[C@]4(C)CN(C(=O)[C@H]5CC5(F)F)C[C@]4(C)C3)n2)cn1` [Compound 21], the IC50 in experiment [1] is 2 nM; in experiment [2], 490 nM; in experiment [3] it was 10 nM.
The corresponding values for `Cn1cc(Nc2ncc(Cl)c(N3C[C@]4(C)CN(C(=O)C5COC5)C[C@]4(C)C3)n2)cn1` [Compound 39, ((3aR,6aS)-5-(5-chloro-2-((1-methyl-1H-pyrazol-4-yl)amino)pyrimidin-4-yl)-3a,6a-dimethylhexahydropyrrolo[3,4-c]pyrrol-2(1H)-yl)(oxetan-3-yl)methanone] are 4.4 nM, 919 nM and 11 nM.
With `Cn1cc(Nc2ncc(Cl)c(N3C[C@H]4CN(C(=O)CC#N)C[C@]4(C)C3)n2)cn1` (racemic) [Compound 100, trans-3-(5-(5-chloro-2((1-methyl-1H-pyrazol-4-yl)amino)pyrimidin-4-yl)-3a-methylhexahydropyrrolo[3,4-c]pyrrol-2(1H)-yl)-3-oxopropanenitrile], the results for the IC50 in experiment [1], in experiment [2] and in experiment [3] were 2.2 nM, 763 nM and 5 nM, respectively.
The like results for `Cn1cc(Nc2ncc(Cl)c(N3C[C@@H]4CN(C(=O)CC#N)C[C@]4(C)C3)n2)cn1` [Compound 88, 3-((3aS,6aR)-5-(5-chloro-2-((1-methyl-1H-pyrazol-4-yl)amino)pyrimidin-4-yl)-3a-methylhexahydropyrrolo[3,4-c]pyrrol-2(1H)-yl)-3-oxopropanenitrile] were, in that order, 0.2 nM, 67 nM and 0.5 nM.
Regarding `Cn1cc(Nc2ncc(Cl)c(N3C[C@]4(C)CN(C(=O)C5(O)CC5)C[C@]4(C)C3)n2)cn1` [Compound 43, ((3aR,6aS)-5-(5-chloro-2-((1-methyl-1H-pyrazol-4-yl)amino)pyrimidin-4-yl)-3a,6a-dimethylhexahydropyrrolo[3,4-c]pyrrol-2(1H)-yl)(1-hydroxycyclopropyl)methanone], the IC50 in experiment [1] worked out at 4.5 nM; in experiment [2], 3390 nM; in experiment [3], 18 nM.
`C[C@@]12CN(C(=O)C3CC3)C[C@]1(C)CN(c1nc(Nc3cnn(CCO)c3)ncc1Cl)C2` [Compound 32]: the figures for the IC50 in experiment [1], in experiment [2] and in experiment [3] were 0.5 nM, 668 nM and 1 nM, respectively.
`Cn1cc(Nc2ncc(Cl)c(N3C[C@]4(C)CN(CC#N)C[C@]4(C)C3)n2)cn1` [Compound 85, 2-((3aR,6aS)-5-(5-chloro-2-((1-methyl-1H-pyrazol-4-yl)amino)pyrimidin-4-yl)-3a,6a-dimethylhexahydropyrrolo[3,4-c]pyrrol-2(1H)-yl)acetonitrile]: the IC50 was determined as 2.4 nM in experiment [1], 5350 nM in experiment [2] and 1.7 nM in experiment [3].
The like results for `Cn1cc(Nc2ncc(Cl)c(N3C[C@]4(C)CN(c5ccncn5)C[C@]4(C)C3)n2)cn1` [Compound 25, 5-chloro-4-((3aR,6aS)-3a,6a-dimethyl-5-(pyrimidin-4-yl)hexahydropyrrolo[3,4-c]pyrrol-2(1H)-yl)-N-(1-methyl-1H-pyrazol-4-yl)pyrimidin-2-amine] were, in that order, 0.3 nM, 399 nM and 0.9 nM.
On to `Cn1cc(Nc2ncc(Cl)c(N3C[C@@H]4CN(C(=O)C5CC5(F)F)C[C@]4(C)C3)n2)cn1` (mixture of isomers) [Compound 65, cis-(5-(5-chloro-2-((1-methyl-1H-pyrazol-4-yl)amino)pyrimidin-4-yl)-3a-methylhexahydropyrrolo[3,4-c]pyrrol-2(1H)-yl)((S)-2,2-difluorocyclopropyl)methanone], for which the IC50 in experiment [1] stood at 0.5 nM; in experiment [2], 136 nM; in experiment [3], 1.3 nM.
Take `C[C@@]12CN(C(=O)C3CC3)C[C@]1(C)CN(c1nc(Nc3cnn(CC#N)c3)ncc1Cl)C2` [Compound 33, 2-(4-((5-chloro-4-((3aR,6aS)-5-(cyclopropanecarbonyl)-3a,6a-dimethylhexahydropyrrolo[3,4-c]pyrrol-2(1H)-yl)pyrimidin-2-yl)arnino)-1H-pyrazol-1-yl)acetonitrile]: the IC50 in experiment [1] is 2.9 nM; in experiment [2], 215 nM; in experiment [3], 6.2 nM.
As for `CN1CCC(n2cc(Nc3ncc(Cl)c(N4C[C@]5(C)CN(C(=O)C6CC6)C[C@]5(C)C4)n3)cn2)CC1` [Compound 16, ((3aR,6aS)-5-(5-chloro-2-((1-(1-methylpiperidin-4-yl)-1H-pyrazol-4-yl)amino)pyrimidin-4-yl)-3a,6a-dimethylhexahydropyrrolo[3,4-c]pyrrol-2(1H)-yl)(cyclopropyl)methanone], the IC50 was found to be 1.2 nM in experiment [1], 1010 nM in experiment [2] and 0.9 nM in experiment [3].
The like results for `Cn1cc(Nc2ncc(Cl)c(N3C[C@]4(C)CN(C(=O)[C@@H]5CC5(F)F)C[C@]4(C)C3)n2)cn1` [Compound 22, ((3aR,6aS)-5-(5-chloro-2-((1-methyl-1H-pyrazol-4-yl)amino)pyrimidin-4-yl)-3a,6a-dimethylhexahydropyrrolo[3,4-c]pyrrol-2(1H)-yl)((S)-2,2-difluorocyclopropyl)methanone] were, in that order, 0.8 nM, 305 nM and 1.4 nM.
